Patent publication US11112409B2, “Systems and compositions for diagnosing pathogenic fungal infection and methods of using the same” (priority 2016, dated 2021)
“Also recorded” adds a separate entry of the source. Square brackets hold non-standard residues; d marks the D form. Ends that are not written are not given here. Peptide text beside a SMILES is read from it. * marks the point of attachment. Lys(DNP) = Lys carrying DNP quencher; Sta = CC(C)C[C@H](N)[C@@H](O)CC(=O)O; Isovaleryl = CC(C)CC(=O)*; Nle = CCCC[C@H](N)C(=O)O

Legend:
Kex2 = assay: MSP-MS profiling of conditioned media with inhibitor pretreatment, cleavage sites assigned to Kex2; assay type: biochemical, C. albicans; details: 1 mM EDTA or 10 μM pepstatin A
Excerpt: FIG. 8 depicts global substrate specificity profiling of recombinant Kex2 from Saccharomyces cerevisiae. (top) Time-dependent generation of cleavages following dibasic (P2-P1) K/R-R residues in the MSP-MS library for recombinant Kex2 and C. albicans wild-type (SN425) conditioned media from 24-hour biofilm and planktonic cultures. Cleavage sites assigned to Kex2 in the conditioned media profiles were sensitive to EDTA and insensitive to pepstatin treatments. […] This is illustrated in the differential cleavage pattern of an example MSP-MS peptide.

[1] = test system: aspartyl protease activity in conditioned media; assay: Pepstatin pretreatment of conditioned media, fluorogenic substrate cleavage; assay type: biochemical, C. albicans; details: 10 μM pepstatin, VFILWRTE and TFSYnRWP substrates
Procedure: FIGS. 4A-4B depict probe activity in biofilm and planktonic conditioned media following pepstatin A pretreatment and in conditioned media from sap5Δ/Δ, sap6Δ/Δ, and sap5/6ΔΔ/ΔΔ deletion strains. […] Matched comparison to wild-type (SN425) conditioned media is provided (FIG. 12).
To further confirm probe selectivity for the target proteases, conditioned media preparations were also assayed from sap5Δ/Δ and sap6Δ/Δ single deletion mutant strains and a sap5/6ΔΔ/ΔΔ double deletion mutant strain (FIG. 4B). […] Indeed, shotgun proteomics analysis on matched biofilm conditioned media preparations from the wild-type reference and mutant strains confirmed an increase in Sap6 levels associated with the sap5Δ/Δ mutant strain. In contrast, there was no observable increase in Sap5 levels associated with the sap6Δ/Δ mutant strain in agreement with the activity results (Table 5). We note that substrate cleavage in the sap5/6ΔΔ/ΔΔ double deletion mutant strain indicates proteolytic activity from additional proteases that are in lower abundance, possibly reflecting compensation for loss of SAP5/SAP6.

[2] = test system: pepstatin-sensitive protease activity in rat serum; assay: Sap6 substrate cleavage in blood/serum from rat biofilm catheter and IV infection models; assay type: biochemical
Procedure: FIG. 16 depicts the detection of pepstatin-sensitive activity in serum from C. albicans biofilm rat catheter and disseminated infection models. Detection of pepstatin-sensitive protease activity with the TFSYnRWP (SEQ ID NO: 23) fluorogenic probe in rat serum samples. Blood was collected both directly from C. albicans biofilm-infected catheters and peripherally 48 hours post biofilm infection (N=3 rats). Blood was also sampled peripherally 24 hours post IV infection with C. albicans (10^6 CFUs) (N=3 rats). Uninfected rats were used as a healthy control (N=3 rats). Activity assays were carried out using serum samples that had been diluted 25-fold into pH 4.0 buffer.
FIG. 22 depicts detection of infection-specific aspartyl protease activity in serum from a rat catheter biofilm model using the Sap6-cleavable probe. Serum was collected both directly from the biofilm-infected catheter, peripherally from the rat jugular vein, and from the jugular vein of an uninfected control rat (n=2).
To provide validation of the protease activity-based diagnostic approach in a rat biofilm catheter model, blood was directly sampled from (i) the catheters of rats with introduced C. albicans biofilms, (ii) peripherally from the same rats, and, (iii) following IV infection, and (iv) as a control, from rats not exposed to C. albicans.

recombinant Sap6 = assay: Internally quenched fluorogenic substrate activity assay with recombinant Sap6; assay type: biochemical, C. albicans; details: 2 μg/mL recombinant Sap, 10 μM substrate, pH 5.5
Procedure: Specific activity was determined with 2 μg/mL recombinant Saps and the substrates […] (10 μM, SEQ ID NO: 22), IYRnHVQL (25 μM; SEQ ID NO: 24), WPSnNKVG (25 μM; SEQ ID NO: 25), and TFSYnRWP (10 μM; SEQ ID NO: 23). RFU was converted to moles of product formation using a correction factor experimentally determined for each substrate.
For each protease, two 8-mer peptide sequences containing P4-P4′ residues from Sap5- or Sap6-favored cleavages were selected for incorporation into internally quenched fluorogenic peptides. The fluorogenic probes were synthesized bearing either a 5-carboxyfluorescein or 7-methoxycoumarin fluorophore with a corresponding quencher positioned at opposing termini such that peptide cleavage yields a fluorescence signal.
Activity assays with internally quenched fluorogenic substrates were performed up to one hour in black 96-well round bottom plates (Costar) using a BioTek Synergy H4 Hybrid Multi-Mode Microplate Reader set to 37° C. The following excitation/emission wavelengths were used: 328 nm/393 nm (gain 96) for MCA and Ex/Em of 485 nm/538 nm (gain 94) for 5-FAM. RFU was corrected to moles of product formation as appropriate using a conversion factor calculated from the total proteolytic hydrolysis of each substrate. Activity assays with conditioned media were performed with 10 μM substrate and either 20 μg/mL protein sample for […] […]

[3] = test system: conditioned media from C. albicans biofilm and planktonic cultures; assay: Fluorogenic substrate cleavage in biofilm and planktonic conditioned media; assay type: biochemical; details: for preferential cleavage by biofilm culture medium (B/P): biofilm versus planktonic conditioned media
Procedure: Activity assays with internally quenched fluorogenic substrates were performed up to one hour in black 96-well round bottom plates (Costar) using a BioTek Synergy H4 Hybrid Multi-Mode Microplate Reader set to 37° C. The following excitation/emission wavelengths were used: 328 nm/393 nm (gain 96) for MCA and Ex/Em of 485 nm/538 nm (gain 94) for 5-FAM. RFU was corrected to moles of product formation as appropriate using a conversion factor calculated from the total proteolytic hydrolysis of each substrate. Activity assays with conditioned media were performed with 10 μM substrate and either 20 μg/mL protein sample for […] (SEQ ID NO: 22) or 10 μg/mL protein sample for TFSYnRWP (SEQ ID NO: 23). For assays with recombinant Saps, 2 μg/mL Sap5 and Sap6 were used with the following substrate concentrations: […] (10 μM; SEQ ID NO: 22), IYRnHVQL (25 μM; SEQ ID NO: 24), WPSnNKVG (25 μM; SEQ ID NO: 25), and TFSYnRWP (10 μM; SEQ ID NO: 23).

**Q.** How did the “sensitivity of Kex2-assigned cleavage sites to inhibitor treatment” value (Kex2) turn out when `O=C(O)CN(CCN(CC(=O)O)CC(=O)O)CC(=O)O` [EDTA] was run?
**A.** sensitive

**Q.** For `CC(C)CC(=O)N[C@H](C(=O)N[C@H](C(=O)N[C@@H](CC(C)C)[C@@H](O)CC(=O)N[C@@H](C)C(=O)N[C@@H](CC(C)C)[C@@H](O)CC(=O)O)C(C)C)C(C)C` [Pepstatin A] (Isovaleryl-VV[Sta]A[Sta]-OH), which “effect of pepstatin pretreatment on substrate cleavage” value [1] is on record?
**A.** significant reduction in substrate cleavage

**Q.** And the “effect of pepstatin pretreatment on TFSYnRWP cleavage in blood of infected rats” value ([2]; pepstatin pretreatment)?
**A.** significantly reduced

**Q.** What about the “sensitivity of Kex2-assigned cleavage sites to inhibitor treatment” value (Kex2) of the same molecule?
**A.** insensitive

**Q.** How did the “specific activity and selectivity for Sap6” value (recombinant Sap6) turn out when “DArg-DArg-Lys(MCA)-Thr-Phe-Ser-Tyr-Nle-Arg-Trp-Pro-Lys(DNP) ({dR-dR-Lys(MCA)}-TFSY[Nle]RWP-{Lys(DNP)}) [TFSYnRWP, internally quenched fluorogenic substrate for Sap6]” was run?
**A.** highest specific activity and selectivity; also recorded: high specific activity and selectivity

**Q.** And the “preferential cleavage by biofilm culture medium (B/P)” value [3]?
**A.** 4.4 fold

**Q.** And the “substrate activity in sap5Δ/Δ deletion strain conditioned media” value ([3]; sap5Δ/Δ single deletion strain)?
**A.** increased

**Q.** And the “substrate cleavage, biofilm versus planktonic conditioned media” value ([3]; wild-type, 24-hour conditioned media, 10 μM substrate)?
**A.** higher biofilm activity

**Q.** What about the “substrate cleavage in blood harvested from infected rats” value ([2]; C. albicans biofilm catheter or IV infected rats) of the same molecule?
**A.** readily detected

**Q.** What about the “cleavage activity in uninfected rats” value ([2]; rats not exposed to C. albicans) of the same molecule?
**A.** absent

**Q.** “VFILWRTE (also: CPQ2 quencher, place not given here, 5-FAM, place not given here, DArg-DArg-NH2, place not given here) [internally quenched fluorogenic substrate for Sap5]” was tested. Which “preferential cleavage by biofilm culture medium (B/P)” value [3] did it give?
**A.** 10 fold
